The text below walks through data of article PMC12607616, “Elucidation of a bacterial pathway for catabolism of the β–β-linked dilignol pinoresinol” (mBio, 2025).

Each structure is given as a SMILES string. Where two headings read alike, the source gives them in different places.

Broadly, the Km is the concentration of substrate that gives half-maximal velocity.

In this test the test system is T1, PinZ.
T1 construct: full-length, N-terminal hexahistidine tag kept (pET-28a(+), pJM492), E. coli BL21 Star (DE3)
The experiment in a line: steady-state kinetics, reversed-phase HPLC. It counts as biochemical, Novosphingobium rhizosphaerae. The note with it: NADPH co-substrate, 20 mM Tris-HCl pH 7.0, 30 °C, 10 min, read-out: apparent Km.

Turning to `COc1cc(C2OCC3C(c4ccc(O)c(OC)c4)OCC23)ccc1O` (racemic) [(±)-pinoresinol], where the note is “racemate”, the Michaelis constant (Km) is 27 ± 6.6 µM.
As to `COc1cc([C@H]2OC[C@H]3[C@@H]2CO[C@@H]3c2ccc(O)c(OC)c2)ccc1O` [(+)-pinoresinol], where the note is “~88% e.e. (+)-pinoresinol preparation”, the Km turned out to be 22.1 ± 3.2 µM.
